# Results: patent US5576208A, “Antisense oligonucleotide inhibition of the RAS gene” (priority 1994, dated 1996)
# pIC50: −log10 of the molar value. “Also recorded” adds a separate entry of the source.
# Experiments:
# [1] = tested on: T24 cancer cells; test: Inhibition of proliferation of cancer cells; format: cell-based, human; details: for inhibition of cell proliferation / pIC50: T24 cells; for pIC50: dose-response, counted 3 days later, read-out: IC50, cell proliferation
# Description: Cells were seeded on 60 mm plates and were treated with oligonucleotide in the presence of DOTMA when they reached 70% confluency. Time course experiment: On day 1, cells were treated with a single dose of oligonucleotide at a final concentration of 100nM. The growth medium was changed once on day 3 and cells were counted every day for 5 days, using a counting chamber.
# [2] = tested on: ras mRNA in T24 cells (activated codon 12); test: Northern blot analysis of ras expression in T24 cells; format: cell-based, human; parameters: inhibition of ras mRNA: concentration or dose not given beside the values
# Description: The human urinary bladder cancer cell line T24 was obtained from the American Type Culture Collection (Rockville Md.). Cells were grown in McCoy's 5 A medium with L-glutamine (Gibco BRL, Gaithersburg Md.), supplemented with 10% heat-inactivated fetal calf serum and 50 U/ml each of penicillin and streptomycin. Cells were seeded on 100 Mm plates. When they reached 70% confluency, they were treated with oligonucleotide. Plates were washed with 10 ml prewarmed PBS and 5 ml of Opti-MEM reduced-serum medium containing 2.5 μl DOTMA. Oligonucleotide was then added to the desired concentration. After 4 hours of treatment, the medium was replaced with McCoy's medium. Cells were harvested 48 hours after oligonucleotide treatment and RNA was isolated using a standard CsCl purification method.
# (§1) Northern hybridization: 10 μg of each RNA was electrophoresed on a 1.2% agarose/formaldehyde gel and transferred overnight to GeneBind 45 nylon membrane (Pharmacia LKB, Piscataway, N.J.) using standard methods. […] RNA was UV-crosslinked to the membrane. Double-stranded ^32 P-labeled probes were synthesized using the Prime a Gene labeling kit (Promega, Madison Wis.). The ras probe was a SalI-NheI fragment of a cDNA clone of the activated (mutant) H-ras mRNA having a GGC-to-GTC mutation at codon-12. The control probe was G3PDH. Blots were prehybridized for 15 Minutes at 68° C. with the QuickHyb hybridization solution (Stratagene, La Jolla, Calif.). The heat-denatured radioactive probe (2.5×10^6 counts/2 ml hybridization solution) mixed with 100 μl of 10 Mg/ml salmon sperm DNA was added and the membrane was hybridized for 1 hour at 68° C. The blots were washed twice for 15 minutes at room temperature in 2× SSC/0.1% SDS and once for 30 minutes at 60° C. with 0.1XSSC/0.1%SDS. Blots were autoradiographed and the intensity of signal was quantitated using an ImageQuant PhosphorImager (Molecular Dynamics, Sunnyvale, Calif.). Northern blots were first hybridized with the ras probe, then stripped by boiling for 15 Minutes in 0.1× SSC/0.1%SDS and rehybridized with the control G3PDH probe to check for correct sample loading.
# [3] = tested on: full length H-ras mRNA (activated, codon 12); test: ras transactivation reporter gene system; details: for pIC50: Table 5, antisense activity against H-ras
# [4] = tested on: 25-mer oligoribonucleotide complement (H-ras codon 12 RNA target); test: Melting curves, hybridization to 25-mer RNA target; format: binding, human; details: for Tm: Table 5, 2'-modified 17-mer with 7-deoxy gap, 25-mer oligoribonucleotide complement
# Description: Absorbance vs temperature curves were measured at 260 nm using a Gilford 260 spectrophotometer interfaced to an IBM PC computer and a Gilford Response II spectrophotometer. The buffer contained 100 mM Na^+, 10 mM phosphate and 0.1 mM EDTA, pH 7. Oligonucleotide concentration was 4 μM each strand determined from the absorbance at 85° C. and extinction coefficients calculated according to Puglisi and Tinoco, Methods in Enzymol. 1989, 180, 304-325. Tm values, free energies of duplex formation and association constants were obtained from fits of data to a two state model with linear sloping baselines. Petersheim, M. and Turner, D.H., Biochemistry 1983, 22, 256-263. Reported parameters are averages of at least three experiments. For some oligonucleotides, free energies of duplex formation were also obtained from plots of Tm^-1 vs log10 (concentration). Borer, P.N., Dengler, B., Tinoco, I., Jr., and Uhlenbeck, O.C., J. Mol. Biol., 1974, 86, 843-853.
# [5] = tested on: 25-base oligoribonucleotide of activated H-ras mRNA, mammalian RNase H; test: RNase H cleavage in vitro with HeLa nuclear extracts; format: biochemical, human; details: HeLa nuclear extracts as source of RNase H
# Description: RNase H assays were performed using a chemically synthesized 25-base oligoribonucleotide corresponding to bases +23 to +47 of activated (codon 12, G→U) H-ras mRNA. The 5' end-labeled RNA was used at a concentration of 20 nM and incubated with a 10-fold molar excess of antisense oligonucleotide in a reaction containing 20 mM tris-Cl, pH 7.5, 100 mM KCl, 10 mM MgCl2, 1 mM dithiothreitol, 10 μg tRNA and 4 U RNasin in a final volume of 10 μl. The reaction components were preannealed at 37° C. for 15 Minutes then allowed to cool slowly to room temperature. HeLa cell nuclear extracts were used as a source of mammalian RNase H. Reactions were initiated by addition of 2 μg of nuclear extract (5 μl) and reactions were allowed to proceed for 10 Minutes at 37° C. Reactions were stopped by phenol/chloroform extraction and RNA components were precipitated with ethanol. Equal CPMs were loaded on a 20% polyacrylamide gel containing 7M urea and RNA cleavage products were resolved and visualized by electrophoresis followed by autoradiography. Quantitation of cleavage products was performed using a Molecular Dynamics Densitometer.
# [6] = tested on: 47-mer H-ras RNA hairpin target; test: Gel shift assay
# Description: The structured ras target transcript, a 47-nucleotide hairpin containing the mutated codon 12, was prepared and mapped as described in Lima et al., Biochemistry 1991, 31, 12055-12061. Hybridization reactions were prepared in 20 μl containing 100 mM sodium, 10 mM phosphate, 0.1 mM EDTA, 100 CPM of T7-generated RNA (approximately 10 pM), and antisense oligonucleotide ranging in concentration from 1 pM to 10 μM. Reactions were incubated 24 hours at 37° C. Following hybridization, loading buffer was added to the reactions and reaction products were resolved on 20% native polyacrylamide gels, prepared using 45 mM tris-borate and 1 mM MgCl2 (TBM). Electrophoresis was carried out at 10° C. and gels were quantitated using a Molecular Dynamics Phosphorimager.
# [7] = tested on: normal (wild type) H-ras RNA, ras-luciferase fusion reporter in HeLa cells; test: ras-luciferase reporter gene assay, normal form; details: for pIC50: read-out: IC50, inhibition of ras-luciferase activity, normal (unmutated) ras-luciferase, dose-response
# [8] = 37° C.; for degradation: HeLa cell extract; for T 1/2: crude HeLa cellular extracts
# Description: Oligonucleotides were incubated in crude HeLa cellular extracts at 37° C. to determine their sensitivity to nuclease degradation as described in Dignam et al., Nucleic Acids Res. 1983, 11, 1475-1489.
# [9] = tested on: mutant (activated, codon 12) H-ras RNA, ras-luciferase fusion reporter in HeLa cells; test: ras-luciferase reporter gene assay, mutant form; details: for pIC50: read-out: IC50, inhibition of ras-luciferase activity, mutant ras-luciferase, dose-response; for effect on ras expression, backbone-modified oligonucleotides: ras-luciferase reporter system, FIG. 15
# [10] = tested on: ras mRNA in HeLa cells (wild-type H-ras codon 12); test: Northern blot analysis of ras expression in HeLa cells; format: cell-based, human
# Description: HeLa cells were maintained as monolayers on 6-well plates in Dulbecco's Modified Eagle's medium (DMEM) supplemented with 10% fetal bovine serum and 100 U/ml penicillin. Treatment with oligonucleotide and isolation of RNA were essentially as described above for T24 cells.
# as §1, with “Northern blots were first hybridized with the ras probe, then stripped by boiling for 15 Minutes in 0.1× SSC/0.1%SDS and rehybridized with the control G3PDH probe to check for correct sample loading.” left out
substance,measurement,setting,value
"4690: SEQ ID NO: 3 phosphorothioate, 2'-fluoro-modified nucleotides flanking a 7-deoxy gap (antisense CCACACCGACGGCGCCC; all phosphorothioate, sugars by position and methylation of C not given here; 2'-fluoro wings flanking a 7-deoxy gap) [compound 4690]",inhibition of cell proliferation,[1],93%
same,pIC50,[1],7.36
same,decrease of ras mRNA,[2],82%
same,pIC50,[3],8.00
same,antisense activity vs. full length ras,"[3]; transactivation reporter gene assay, Example 9",the most active
same,Tm,[4],76.9 °C
CCACACCGACGGCGCCC (chemistry not given here) [compound 4122],ability to direct RNase H cleavage,[5],no cleavage was observed
same,binding to the hairpin target,[6]; listed as full 2'--O--methyl 17-mer,formed the most stable duplex
"CCACACCGACGGCGCCC [2570] (phosphorothioate, further chemistry not given here) [compound 2570]",pIC50,[7],~6.60
same,degradation,[8],no degradation after 5 hours
same,selectivity for inhibition of mutant ras-luciferase relative to wild type,[9]; 100 nM oligonucleotide,approximately 4 fold
same,selectivity toward the mutant form of ras-luciferase as compared to the normal form,[9]; at low concentrations,approximately threefold
same,"selectivity, mutant over wild type","[9]; dose-dependent experiment, FIG. 8",5 fold
same,pIC50,[9],~7.00
same,selectivity toward the mutated form of ras-luciferase,[9]; single dose 0.5 μM,displayed selectivity toward the mutated form of ras-luciferase
same,inhibition of T24 cell proliferation relative to HeLa cells,[1]; 100 nM oligonucleotide concentration,four times as severe
same,inhibition of cell proliferation,[1],61%
same,pIC50,[1],7.01
same,inhibition of ras expression,[2],inhibited ras expression in T24 cells; also recorded: decreased ras mRNA levels in T24 cells
same,inhibition of ras mRNA,[2],82%
same,inhibition of ras expression,[10],did not inhibit ras expression in HeLa cells
same,pIC50,[3]; listed as Deoxy,6.82
same,Tm,[4],64.2 °C
same,ΔΔG°37,[4]; free energy difference between hybridization to mutant target and to wild type target,+1.8 kcal/mole
same,binding to the hairpin target,[6]; listed as full deoxy 17-mer,formed the least stable duplex
"CCACACCGACGGCGCCC [3985] (chemistry not given here) [compound 3985, chimeric phosphorothioate, 2'-O-methyl ends, deoxy gap 7]",inhibition of cell proliferation,[1],82%
same,pIC50,[1],7.21
same,decrease of ras mRNA,[2],81%
same,inhibition of ras mRNA,[2],95%
same,pIC50,[3]; listed as O-Methyl,7.70
same,activity relative to the full deoxy oligonucleotide,"[3]; dose response, FIG. 11B",approximately five times greater
same,Tm,[4],74.7 °C
"CCACACCGCCGGCGCCC (phosphorothioate, further chemistry not given here) [compound 2907]",selective inhibition of wild type ras-luciferase relative to mutant,[7]; 100 nM oligonucleotide,approximately 5 fold
CsCsAsCoAoCoCoGoAoCoGoGoCoGsCsCsC [compound 4241],T 1/2,[8],0.9 h
same,"effect on ras expression, backbone-modified oligonucleotides",[9],completely inactive
CsCsAsCsAsCsCoGoAoCoGoGsCsGsCsCsC [compound 4606],T 1/2,[8],1.75 h
CsCsAsCsAsCsCoGoAoCoGsGsCsGsCsCsC [compound 4593],T 1/2,[8],~3.2 h
CsCsAsCsAsCsCsGoAoCoGsGsCsGsCsCsC [compound 4551],T 1/2,[8],~3.75 h
CsCsAsCsAsCsCsGoAoCsGsGsCsGsCsCsC [compound 4546],T 1/2,[8],approximately 5.5 hours
CsCsAsCsAsCsCsGsAoCsGsGsCsGsCsCsC [compound 4248],degradation,[8],no degradation after 5 hours
same,"effect on ras expression, backbone-modified oligonucleotides",[9],just as active as a full P=S molecule
TCCGTCATCGCTCCTCAGGG [compound 2503],pIC50,[7],~7.30
same,pIC50,[9],~7.30
same,inhibition of ras-luciferase expression,"[9]; single dose 100 nM, HeLa cells",effective in inhibiting ras-luciferase expression
same,inhibition of ras-luciferase activity,"[9]; single dose 0.5 μM, normal or mutant form",most effective in inhibiting ras-luciferase activity
same,inhibition of ras expression,[2],inhibited ras expression in T24 cells
same,inhibition of ras mRNA,[2],71%
same,inhibition of ras expression,[10],inhibited ras expression in HeLa cells
